Results from the Deep4Chem optical property database.
Blank lines part the entries; values can stand above or below the molecule they belong to.

Assay: solvent given as SMILES
[1] = in c1ccc2c(c1)c1ccccc1n2-c1ccc(-c2ccc(-n3c4ccccc4c4ccccc43)cc2)cc1

emission maximum (in ClC(Cl)Cl): 548 nm
SMILES: CCCCCCN1C(=O)c2cc(-c3ccc(-n4c5ccccc5c5ccccc54)cc3)c(-c3ccc(-n4c5ccccc5c5ccccc54)cc3)cc2C1=O
emission maximum [1]: 481 nm

emission maximum (in CC#N): 509 nm
SMILES: C[C@]12SC(=O)C=C1c1nc(-c3ccc(Cl)cc3)[nH]c1C1=CC(=O)S[C@@]12C

emission maximum (in CCO): 412 nm
SMILES: CC(C)=CCN1C(=O)c2cccc3c2c(cc2nc(C)oc23)C1=O

SMILES: CN1c2ccccc2C(O)(c2ccccc2)c2cc([N+](=O)[O-])ccc21 (stereo unspecified)
emission maximum (in C1CCOC1): 501.3 nm
emission maximum (in CC#N): 557 nm
emission maximum (in CCO): 536.2 nm
emission maximum (in CO): 544.7 nm
emission maximum (in CS(C)=O): 566.8 nm
emission maximum (in Cc1ccccc1): 480.7 nm

emission maximum (in C1CCOC1): 405 nm
SMILES: C1=Cc2ccccc2C(=Cc2ccc(C=C3c4ccccc4C=Cc4ccccc43)cc2)c2ccccc21

emission maximum (in C1CCOC1): 599 nm
SMILES: Cc1ccc(C2=C3C=CC(Sc4ccccc4)=[N+]3[B-](F)(F)n3c(Sc4ccccc4)ccc32)cc1

SMILES: CC1(C)[C@@H]2CC[C@]1(C)c1nc3cc(-c4cccs4)ccc3nc12
emission maximum (in CC#N): 418 nm
emission maximum (in CCCCCC): 402 nm
emission maximum (in CCCCO): 442 nm
emission maximum (in CCO): 446 nm
emission maximum (in CCOC(C)=O): 406 nm
emission maximum (in CO): 451 nm
emission maximum (in Cc1ccccc1): 402 nm
emission maximum (in ClC(Cl)Cl): 415 nm
emission maximum (in ClCCl): 413 nm

emission maximum (in C1CCOC1): 481 nm
SMILES: N#Cc1c(N2CCCCC2)cc(-c2ccc3ccc4cccc5ccc2c3c45)c2c1Cc1ccccc1-2

emission maximum (in CC#N): 459 nm
emission maximum (in CCO): 499 nm
SMILES: CC1(C)CC(=O)c2c(F)c(F)cc(F)c2N1

SMILES: CC[N+]1(CC)CN2C(=N1)C(C(=O)O)=Cc1ccccc12
emission maximum (in CN(C)C=O): 463 nm
emission maximum (in O): 462 nm

emission maximum (in ClC(Cl)Cl): 396 nm
SMILES: Cc1ccc2c(c1)c(C#N)c(C#N)c1cc(C)ccc12

emission maximum (in ClCCl): 533 nm
SMILES: O=c1oc2ccccc2c2c1c(=O)oc1c3ccccc3cc(O)c12

emission maximum (in CCO): 719 nm
SMILES: C[Si]1(C)C2=CC(=[N+]3CCC3)C=C(F)C2=Nc2c(F)cc(N3CCC3)cc21

emission maximum (in ClCCl): 401 nm
SMILES: CCOC(=O)c1c(-c2cc3ccccc3oc2=O)nn(-c2ccccc2)c1C(=O)OCC

SMILES: O=C(c1ccc(-n2c3ccccc3c3cc(-n4c5ccccc5c5ccccc54)ccc32)cc1)c1ccc(-n2c3ccccc3c3cc(-n4c5ccccc5c5ccccc54)ccc32)cn1
emission maximum (in Cc1ccccc1): 462 nm
emission maximum (in O=P(c1ccccc1)(c1ccccc1)c1ccccc1Oc1ccccc1P(=O)(c1ccccc1)c1ccccc1): 475 nm

emission maximum (in ClCCl): 403 nm
SMILES: CC(C)(C)NC(=O)c1cccc2ccc3c4ccccc4c4ccccc4c3c12

SMILES: CCN(CC)c1ccc2cc(/C=C(\C#N)c3nc4ccccc4s3)c(=O)oc2c1
emission maximum (in C1COCCO1): 570 nm
emission maximum (in CC#N): 596 nm
emission maximum (in CCO): 594 nm
emission maximum (in CCOC(C)=O): 576 nm
emission maximum (in CN(C)C=O): 605 nm
emission maximum (in CO): 598 nm
emission maximum (in CS(C)=O): 613 nm
emission maximum (in Cc1ccccc1): 567 nm
emission maximum (in ClCCl): 580 nm

emission maximum (in ClCCl): 417 nm
SMILES: COc1cc(-c2ncc(-c3ccncc3)o2)cc(OC)c1OC

SMILES: CN(CCO)c1ccc(/C=C/C2=CC(=C(C#N)C#N)CC(C)(C)C2)cc1
emission maximum (in CC#N): 651 nm
emission maximum (in CC(C)=O): 648 nm
emission maximum (in CCCCO): 649 nm
emission maximum (in ClC(Cl)Cl): 612 nm
emission maximum (in ClCCl): 634 nm
emission maximum (in c1ccccc1): 588 nm

emission maximum (in ClCCl): 521 nm
SMILES: Cc1ccc2nc3cc4ccccc4cc3c(-c3ccccc3)c2c1

emission maximum (in ClCCl): 526 nm
SMILES: CCCc1c(C(=O)c2ccc3c4c(cccc24)-c2cccc4c2C3CC=C4)c2ccc3cccc4c5cccc6ccc1c(c65)c2c34 (stereo unspecified)

SMILES: Cc1cc(C)c(B(c2ccc(-c3nc4c5ccccc5c5ccccc5c4[nH]3)cc2)c2c(C)cc(C)cc2C)c(C)c1
emission maximum (in C1CCOC1): 456 nm
emission maximum (in CC(C)=O): 469 nm
emission maximum (in CS(C)=O): 484 nm
emission maximum (in Cc1ccccc1): 435 nm
emission maximum (in ClCCl): 454 nm

emission maximum (in ClCCl): 536 nm
SMILES: CC1=CC(C)=[N+]2C1=C(c1c(-c3ccccn3)nc3ccccn13)c1c(C)cc(C)n1[B-]2(F)F

emission maximum (in CS(C)=O): 692 nm
SMILES: COc1ccc(C2=[N+]3C(=Nc4c(C)cc(-c5ccc(OC)cc5)n4[B-]3(F)F)C(C)=C2)cc1

emission maximum (in CO): 813 nm
SMILES: CS1(C)C(/C=C/C2=C(c3ccc(C(=O)O)cc3)C(=C/C=C3/N(CCCCS(=O)(=O)[O-])c4ccccc4S3(C)C)/CCC2)=[N+](CCCCS(=O)(=O)[O-])c2ccccc21

SMILES: CC1(C)c2ccccc2N(c2ccc(-c3nnc(-c4cc(-c5ccccc5)c(-c5ccccc5)c(-c5ccccc5)c4-c4ccccc4)o3)cc2)c2ccccc21
emission maximum (in Cc1ccccc1): 445 nm
emission maximum (in c1ccc(-n2c(-c3c(-n4c5ccccc5c5ccccc54)cccc3-n3c4ccccc4c4ccccc43)nc3ccccc32)cc1): 453 nm

emission maximum (in ClC(Cl)Cl): 730 nm
SMILES: COc1ccc2c(c1)SCC1=C(c3ccccc3)C3=Nc4c(-c5ccccc5)c5c(n4[B-](F)(F)[N+]3=C12)-c1ccc(OC)cc1SC5

emission maximum (in CC#N): 584 nm
emission maximum (in CCCCCC): 597 nm
emission maximum (in CCOC(C)=O): 588 nm
emission maximum (in CO): 582 nm
emission maximum (in ClCCl): 586 nm
SMILES: CCCSC1=[N+]2C(=C(c3ccccc3)c3ccc(SCCC)n3[B-]2(F)F)C=C1SC#N

SMILES: Cc1ccc(C2=C3C=CC(c4ccccc4)=[N+]3[B-](F)(F)n3c2ccc3-c2ccccc2)cc1
emission maximum (in C1CCCCC1): 585 nm
emission maximum (in C1CCOC1): 586 nm
emission maximum (in C1COCCO1): 587 nm
emission maximum (in CCOC(C)=O): 583 nm
emission maximum (in CO): 582 nm
emission maximum (in Cc1ccccc1): 589 nm
emission maximum (in ClC(Cl)Cl): 588 nm

emission maximum (in CCO): 541 nm
SMILES: CCOC(=O)c1cc(C(=O)OCC)c2ccc(N(C)C)cc2n1

emission maximum (in CC#N): 391 nm
SMILES: c1ccc(-c2nc(-c3cccs3)[nH]c2-c2ccccc2)cc1

emission maximum (in ClCCl): 500 nm
SMILES: c1ccc(-c2ccc3c4ccc(-c5ccccc5)c5c(-c6ccccc6)ccc(c6cccc2c63)c54)cc1

SMILES: N#Cc1cc2nc3c(nc2cc1C#N)C1c2ccc(N(c4ccccc4)c4ccccc4)cc2C3c2ccc(N(c3ccccc3)c3ccccc3)cc21
emission maximum (in C1CCCCC1): 487 nm
emission maximum (in CC#N): 492 nm
emission maximum (in Cc1ccccc1): 552 nm
emission maximum (in ClCCl): 497 nm

SMILES: CCCC1=Cc2nc1ccc1[nH]c(cc1CCC)c1nc(ccc3[nH]c2cc3CCC)C(CCC)=C1
emission maximum (in Cc1ccccc1): 641 nm

emission maximum (in ClCCl): 431 nm
SMILES: CC(C)(C)c1ccc2c(c1)c1cc(C(C)(C)C)ccc1n2-c1ccc(C#Cc2ccc3c4ccc(C#Cc5ccc(-n6c7ccc(C(C)(C)C)cc7c7cc(C(C)(C)C)ccc76)cc5)cc4n(-c4ccc(C(F)(F)F)cc4)c3c2)cc1

emission maximum (in ClCCl): 446 nm
SMILES: CCCCn1c(-c2ccc(-c3nnc(-c4ccccc4)o3)cc2)nc2c3ccccc3c3ccccc3c21

SMILES: CC(C)(C)c1ccc(-c2nc3c4ccccc4c4ccccc4c3n2-c2ccc(C(C)(C)C)cc2)cc1
emission maximum (in C1CCOC1): 390 nm
emission maximum (in C1COCCO1): 389 nm
emission maximum (in CC#N): 389 nm
emission maximum (in CCCCCC): 385 nm
emission maximum (in CCCCOCCCC): 389 nm
emission maximum (in CCN(CC)CC): 388 nm
emission maximum (in CCOC(C)=O): 390 nm
emission maximum (in CCOCC): 388 nm
emission maximum (in CN(C)C=O): 391 nm
emission maximum (in Cc1ccccc1): 390 nm
emission maximum (in ClC=C(Cl)Cl): 392 nm
emission maximum (in ClCCl): 392 nm

emission maximum (in CC#N): 460 nm
emission maximum (in CO): 455 nm
emission maximum (in O): 475 nm
SMILES: CSc1ccc2c(c1)N(CCCN(C)C)c1ccccc1S2

emission maximum (in ClCCl): 444 nm
SMILES: O=C1c2ccccc2C2=Nc3ccc4ccccc4[n+]3[B-](F)(F)N12

emission maximum (in O): 443 nm
SMILES: CC(C)(C)c1cccc2c([O-])cccc12

emission maximum (in CCCCCCC): 401 nm
SMILES: c1ccc2cc3c(cc2c1)-c1cccc2c1c-3cc1ccccc12

emission maximum (in C1CCCCC1): 380 nm
emission maximum (in CO): 385 nm
SMILES: Cc1ccc(/C=C(\c2ccccc2)c2nc3ccccc3o2)cc1

emission maximum (in CC#N): 585 nm
emission maximum (in CCCCCC): 588 nm
emission maximum (in CCOC(C)=O): 589 nm
emission maximum (in CO): 583 nm
emission maximum (in ClCCl): 594 nm
SMILES: CCCSc1ccc2n1[B-](F)(F)[N+]1=CC=CC1=C2c1ccccc1

emission maximum (in CCO): 487 nm
SMILES: O=c1c2cc(F)c(N3CCCCC3)cc2sc2cc(N3CCCCC3)c(F)cc12

emission maximum (in CC#N): 599 nm
SMILES: CC1=C2C3=C(CCc4ccccc43)C(C)=[N+]2[B-](F)(F)n2c(C)c3c(c21)-c1ccccc1CC3

emission maximum (in ClCCl): 384 nm
SMILES: O=P(c1ccccc1)(c1ccccc1)c1cccc(-n2c(-c3ccccc3P(=O)(c3ccccc3)c3ccccc3)nc3ccccc32)c1

emission maximum (in C1CCCCC1): 330 nm
emission maximum (in CC#N): 344 nm
emission maximum (in CO): 350 nm
emission maximum (in O): 351 nm
SMILES: CCOC(=O)CCOc1ccc(C(c2c(C)[nH]c3ccccc23)c2c(C)[nH]c3ccccc23)cc1OC

SMILES: c1ccc(-c2nc(-c3ccccc3)nc(-c3ccc(-n4c5ccccc5c5c6c(ccc54)C4(c5ccccc5-c5ccccc54)c4ccccc4-6)cc3)n2)cc1
emission maximum (in C1CCOC1): 488.19 nm
emission maximum (in C1COCCO1): 453.7 nm
emission maximum (in CN(C)C=O): 525.23 nm
emission maximum (in Cc1ccccc1): 444 nm
emission maximum (in ClC(Cl)Cl): 496.99 nm

emission maximum (in CO): 776 nm
emission maximum (in O): 771 nm
SMILES: CC1(C)C(/C=C/C=C/C=C/C=C2/N(S(=O)(=O)[O-])c3ccc(S(=O)(=O)[O-])cc3C2(C)C)=[N+](S(=O)(=O)[O-])c2ccc(S(=O)(=O)[O-])cc21

SMILES: CC(C)(C)c1ccc2c(c1)c1cc(C(C)(C)C)ccc1n2-c1ccc(-c2ccc3c(c2)C(=O)c2ccc(-c4ccc(-n5c6ccc(C(C)(C)C)cc6c6cc(C(C)(C)C)ccc65)cc4)cc2C3=O)cc1
emission maximum (in Cc1ccccc1): 558 nm
emission maximum [1]: 550 nm

emission maximum (in ClC(Cl)Cl): 478 nm
SMILES: CCN(CC)c1ccc2cc(-c3cn4cc(OC)ccc4n3)c(=O)oc2c1

emission maximum (in CS(C)=O): 494 nm
SMILES: BrC1=CN2C[n+]3cc(Br)cc(Br)c3N=C2C(Br)=C1

emission maximum (in ClCCl): 521 nm
SMILES: COc1cc(/C=C/c2nc(N3CCOCC3)c3c([n+]2[O-])CCCC3)cc(OC)c1OC

emission maximum (in ClCCl): 564 nm
SMILES: Cc1ccccc1N1c2sc3ccccc3c2Sc2sc3ccccc3c21

emission maximum (in CC#N): 327 nm
emission maximum (in CCCCCC): 324 nm
SMILES: COc1ccc(-n2cccc2)cc1
